The values that follow are results of earlier work, collected in article PMC7606817 (Journal of controlled release : official journal of the …, 2020).

For this series the following is noted: mice.

Consider `[C-]#[O+]` [CO, Carbon monoxide], for which the CO elimination half-life is 20 min.
